The record followed here is ChEMBL document CHEMBL1201862, “PubChem BioAssay data set” (2004).

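Five concentrations, 48 hours, 96-well plates. Here, GI50 denotes the concentration required for 50% inhibition of growth.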 Active and inactive are the calls of the source. Cut-off read from the data, not from the text of the source: active = GI50 up to about 1.1 µM and inactive = higher. Where only a bound is given, the exact number is not on record here.

Test systems include 786-0; A498; COLO 205; HCC 2998; HCT-116; HCT-15; HOP-92; K562; KM12; LOX IMVI; MCF7; Malme-3M; OVCAR-3; RPMI-8226; SF-295; SK-MEL-5; SK-OV-3; SNB-75; TK-10; U-251.
What all share (experiment): DTP human tumour cell line panel, 48 h

`C/C=C/[C@@H]1O[C@H](CC#C[Si](C)(C)C)[C@@]2(C=O)C(C)=CC[C@H](C(C)C)[C@@H]12`: the GI50 with 786-0 was 13.7 µM (inactive); in the assay with A498 it was 29.6 µM (inactive); in the assay with COLO 205, 21.5 µM (inactive); in the assay with HCC 2998, 18.2 µM (inactive); with HCT-116 it was 18.2 µM (inactive); in the assay on HCT-15 it was 21.1 µM. The GI50 was 17.4 µM (inactive) in the assay with HOP-92; 14.7 µM (inactive) in the assay on K562; 17.7 µM (inactive) in the assay on KM12; 4.5 µM (inactive) with LOX IMVI; 22.5 µM (inactive) in the assay with MCF7; 19 µM (inactive) with Malme-3M. In addition, the GI50 was 18.6 µM (inactive) in the assay on OVCAR-3; 5.7 µM (inactive) in the assay on RPMI-8226; 21.9 µM (inactive) in the assay on SF-295; 17.6 µM (inactive) in the assay on SK-MEL-5; 80.4 µM (inactive) in the assay on SK-OV-3; 21.6 µM (inactive) in the assay on SNB-75. Also, the GI50 was 15 µM (inactive) in the assay on TK-10 and 17.3 µM (inactive) in the assay on U-251.

In the case of `Cc1ccc(NC(=O)c2cccc(OP(=O)(O)Nc3ccc(C)cc3)c2)cc1`, the GI50 in the assay with 786-0 was > 100 µM (inactive); in the assay on A498 it was > 100 µM (inactive); in the assay with COLO 205, > 100 µM (inactive); in the assay on HCC 2998 it was > 100 µM (inactive); in the assay on HCT-116, > 100 µM (inactive); with HCT-15, above 100 µM. Also, the GI50 in the assay with HOP-92 was 37.2 µM (inactive); in the assay on K562, > 100 µM (inactive); in the assay on KM12 it was > 100 µM (inactive); in the assay on LOX IMVI, > 100 µM (inactive); with MCF7, > 100 µM (inactive); in the assay on Malme-3M, > 100 µM (inactive). In addition, the GI50 with OVCAR-3 is > 100 µM (inactive); with RPMI-8226, > 100 µM (inactive); with SF-295 it was > 100 µM (inactive); in the assay on SK-MEL-5 it was > 100 µM (inactive); in the assay with SK-OV-3 it was > 100 µM (inactive); with SNB-75, 20.2 µM (inactive). The GI50 with TK-10 and in the assay with U-251 was > 100 µM (inactive) throughout.

Turning to `Cc1cccc2c(NCCCN(C)C)c3c([N+](=O)[O-])ccc(C)c3nc12`, the GI50 is 0.0689 µM (active) in the assay with 786-0; < 0.01 µM (active) in the assay on A498; 0.0802 µM (active) with COLO 205; < 0.0255 µM (active) with HCC 2998; 0.1 µM (active) in the assay on HCT-116; 0.0435 µM with HCT-15. The GI50 with HOP-92 was 0.0916 µM (active); with K562 it was 0.115 µM (active); in the assay on KM12, 0.103 µM (active); in the assay on LOX IMVI, 0.197 µM (active); with MCF7, < 0.0161 µM (active); with Malme-3M, 0.175 µM (active). For the same molecule, the GI50 in the assay with OVCAR-3 was 0.109 µM (active); with RPMI-8226, 0.19 µM (active); in the assay with SF-295, 0.0689 µM (active); in the assay on SK-MEL-5, 0.082 µM (active); in the assay with SK-OV-3 it was 0.278 µM (active); with SNB-75 it was 0.186 µM (active). For the same molecule, the values for the GI50 in the assay with TK-10 and in the assay with U-251 were 0.252 µM (active) and 0.147 µM (active), respectively.

Take `O=C(CN1CCN(C(=O)OCc2ccccc2)CCN(CC(=O)N2CCCCC2)CCN(C(=O)OCc2ccccc2)CC1)N1CCCCC1`: the GI50 with 786-0 is 13.8 µM (inactive); in the assay with A498, 16.7 µM (inactive); in the assay with COLO 205, 11.9 µM (inactive); in the assay on HCC 2998, 11.2 µM (inactive); in the assay on HCT-116 it was 4.88 µM (inactive); in the assay on HCT-15, 17.9 µM. Besides, the GI50 was 12.9 µM (inactive) in the assay on HOP-92; 5.4 µM (inactive) in the assay with K562; 17.7 µM (inactive) in the assay with KM12; 14.5 µM (inactive) with LOX IMVI; 17.1 µM (inactive) in the assay on MCF7; 8.38 µM (inactive) in the assay with Malme-3M. Besides, the GI50 in the assay on OVCAR-3 was 10.7 µM (inactive); in the assay on RPMI-8226 it was 13.4 µM (inactive); in the assay on SF-295 it was 18.7 µM (inactive); in the assay with SK-MEL-5, 6.87 µM (inactive); in the assay with SK-OV-3, 27.7 µM (inactive); in the assay with SNB-75, 4.22 µM (inactive). In addition, the GI50 in the assay on TK-10 is 11.5 µM (inactive); in the assay with U-251, 16.5 µM (inactive).

For `CCN(CC)C(=S)N/N=C(/c1ccccc1)c1ccccn1`, the GI50 with 786-0 is 0.145 µM (active); in the assay on A498, 0.311 µM (active); with COLO 205, 0.0275 µM (active); in the assay with HCC 2998 it was 2.15 µM (inactive); in the assay with HCT-116, 0.0454 µM (active); in the assay on HCT-15, 0.126 µM. The GI50 in the assay on HOP-92 was 1.65 µM (inactive); in the assay with K562 it was 0.185 µM (active); in the assay with KM12 it was 0.0942 µM (active); in the assay with LOX IMVI it was 0.2 µM (active); with MCF7 it was 0.0867 µM (active); in the assay on Malme-3M it was 0.929 µM (active). The GI50 in the assay with OVCAR-3 is 0.0288 µM (active); with RPMI-8226, 0.11 µM (active); in the assay on SF-295, 0.342 µM (active); in the assay with SK-MEL-5 it was 0.209 µM (active); in the assay with SK-OV-3 it was 0.673 µM (active); in the assay with SNB-75 it was 0.875 µM (active). For the same molecule, the GI50 with TK-10 was 0.439 µM (active); in the assay on U-251, 0.0995 µM (active).

In the case of `CCCC1(CCC)c2cc(/C=N\O)ccc2-c2ccc(-c3ccc(C(C)(C)C)cc3)cc21`, the GI50 is 37.4 µM (inactive) with 786-0; > 10 µM (inactive) with A498; > 100 µM (inactive) in the assay with COLO 205; 42.6 µM (inactive) with HCC 2998; 22.6 µM (inactive) in the assay on HCT-116; above 100 µM with HCT-15. For the same molecule, the GI50 is 64.9 µM (inactive) with HOP-92; 45.7 µM (inactive) with K562; 55.3 µM (inactive) with KM12; 32.7 µM (inactive) with LOX IMVI; 25.6 µM (inactive) in the assay on MCF7; > 100 µM (inactive) with Malme-3M. The GI50 was 22.9 µM (inactive) in the assay with OVCAR-3; 33.7 µM (inactive) in the assay with RPMI-8226; 33.2 µM (inactive) in the assay on SF-295; 80.4 µM (inactive) in the assay with SK-MEL-5; > 100 µM (inactive) with SK-OV-3; 67.1 µM (inactive) with SNB-75. In addition, the GI50 was 39 µM (inactive) in the assay on TK-10 and > 10 µM (inactive) in the assay with U-251.

On to `CCOC(=O)n1c(=O)nc2c3c(ncn21)Oc1c(c(-c2ccccc2)nn1-c1ccccc1)C3c1ccc(Cl)cc1` (stereo not given), for which the GI50 in the assay on 786-0 is 1.52 µM (inactive); with A498, 1.79 µM (inactive); with COLO 205 it was 1.32 µM (inactive); in the assay with HCC 2998 it was 0.631 µM (active); in the assay with HCT-116 it was 1.5 µM (inactive); in the assay with HCT-15, 1.18 µM. Further, the GI50 in the assay on HOP-92 is 1.36 µM (inactive); with K562 it was 1.08 µM (active); with KM12, 1.56 µM (inactive); with LOX IMVI, 1.46 µM (inactive); in the assay on MCF7, 1.56 µM (inactive); in the assay on Malme-3M, 1.84 µM (inactive). The GI50 with OVCAR-3 is 1.48 µM (inactive); in the assay on RPMI-8226, 1.46 µM (inactive); with SF-295, 1.86 µM (inactive); with SK-MEL-5, 1.7 µM (inactive); with SK-OV-3 it was 2.86 µM (inactive); with SNB-75, 1.91 µM (inactive). Besides, the GI50 was 1.7 µM (inactive) in the assay on TK-10 and 1.69 µM (inactive) in the assay on U-251.

`NC1=C(Cl)C(=O)c2c(O)ccc(O)c2C1=O`: the GI50 in the assay on 786-0 is 8.93 µM (inactive); in the assay with A498 it was 14.1 µM (inactive); with COLO 205 it was 1.69 µM (inactive); with HCC 2998, 2.84 µM (inactive); with HCT-116 it was 2.47 µM (inactive); with HCT-15, 3.37 µM. The GI50 with HOP-92 was 12.1 µM (inactive); in the assay on K562, 22.4 µM (inactive); in the assay with KM12, 2.92 µM (inactive); in the assay on LOX IMVI, 1.79 µM (inactive); in the assay on MCF7 it was 1.55 µM (inactive); with Malme-3M, 0.279 µM (active). The GI50 with OVCAR-3 is 2.22 µM (inactive); in the assay with RPMI-8226 it was 4.75 µM (inactive); in the assay with SF-295, 2.1 µM (inactive); in the assay with SK-MEL-5, 0.735 µM (active); in the assay with SK-OV-3 it was 20.9 µM (inactive); in the assay with SNB-75 it was 5.41 µM (inactive). The values for the GI50 in the assay with TK-10 and with U-251 were 15.2 µM (inactive) and 4.12 µM (inactive), respectively.
